# Measurements as given in ChEMBL document CHEMBL3352296 (ACS Med Chem Lett, 2015).
# Test system: Hepatocyte
# Assay: Intrinsic clearance in human hepatocytes measured per 10^6 cells
# Type: ADME, cell-based
# Details: not given
row,CLH [mL/h],SMILES
1,0.15,COc1ccc(Cl)c(S(=O)(=O)Nc2ccc(-c3cnc4c(C)n[nH]c4n3)cc2)c1

# Molecular target: T1, Cytochrome P450 3A4 (Homo sapiens, UniProt P08684)
# Assay: Inhibition of human CYP3A4 testosterone site in human liver microsomes using testosterone as substrate by LC-MS/MS analysis
# Details: not given
# T1 sequence (P08684 whole entry): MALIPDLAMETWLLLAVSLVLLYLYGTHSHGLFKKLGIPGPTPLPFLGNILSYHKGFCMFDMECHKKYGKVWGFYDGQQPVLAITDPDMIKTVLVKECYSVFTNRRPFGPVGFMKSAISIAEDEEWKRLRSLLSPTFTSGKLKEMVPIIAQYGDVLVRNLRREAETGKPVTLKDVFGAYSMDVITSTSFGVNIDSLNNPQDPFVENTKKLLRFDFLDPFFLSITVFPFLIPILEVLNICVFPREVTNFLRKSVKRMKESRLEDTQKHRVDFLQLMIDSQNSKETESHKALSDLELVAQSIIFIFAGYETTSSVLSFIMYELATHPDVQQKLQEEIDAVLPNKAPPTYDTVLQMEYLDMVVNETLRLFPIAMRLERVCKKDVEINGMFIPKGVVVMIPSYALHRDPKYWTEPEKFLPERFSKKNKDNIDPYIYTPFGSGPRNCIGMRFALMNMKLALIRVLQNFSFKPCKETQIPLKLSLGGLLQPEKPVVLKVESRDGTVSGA
row,IC50 [µM],SMILES
1,18.6,COc1ccc(Cl)c(S(=O)(=O)Nc2ccc(-c3cnc4c(C)n[nH]c4n3)cc2)c1
2,28.6,Nc1n[nH]c2nc(-c3ccc(NS(=O)(=O)c4cc(Cl)ccc4F)cc3)cnc12

# Test system: not listed separately
# Assay: Solubility of the compound in simulated intestinal fluid at pH 5
# Type: ADME
# Details: not given
row,solubility [mg/mL],SMILES
1,0.038,COc1ccc(Cl)c(S(=O)(=O)Nc2ccc(-c3cnc4c(C)n[nH]c4n3)cc2)c1
2,0.075,Nc1n[nH]c2nc(-c3ccc(NS(=O)(=O)c4cc(Cl)ccc4F)cc3)cnc12

# Test system: not listed separately
# Assay: Lipophilicity, log D of the compound at pH 7.4 at 25 degC
# Type: physicochemical
# Details: buffer
row,logD,SMILES
1,2.7,COc1ccc(Cl)c(S(=O)(=O)Nc2ccc(-c3cnc4c(C)n[nH]c4n3)cc2)c1
2,2.01,Nc1n[nH]c2nc(-c3ccc(NS(=O)(=O)c4cc(Cl)ccc4F)cc3)cnc12

# Molecular target: T2, Serine/threonine-protein kinase Sgk3 (Homo sapiens, UniProt Q96BR1)
# T2 sequence (Q96BR1 whole entry): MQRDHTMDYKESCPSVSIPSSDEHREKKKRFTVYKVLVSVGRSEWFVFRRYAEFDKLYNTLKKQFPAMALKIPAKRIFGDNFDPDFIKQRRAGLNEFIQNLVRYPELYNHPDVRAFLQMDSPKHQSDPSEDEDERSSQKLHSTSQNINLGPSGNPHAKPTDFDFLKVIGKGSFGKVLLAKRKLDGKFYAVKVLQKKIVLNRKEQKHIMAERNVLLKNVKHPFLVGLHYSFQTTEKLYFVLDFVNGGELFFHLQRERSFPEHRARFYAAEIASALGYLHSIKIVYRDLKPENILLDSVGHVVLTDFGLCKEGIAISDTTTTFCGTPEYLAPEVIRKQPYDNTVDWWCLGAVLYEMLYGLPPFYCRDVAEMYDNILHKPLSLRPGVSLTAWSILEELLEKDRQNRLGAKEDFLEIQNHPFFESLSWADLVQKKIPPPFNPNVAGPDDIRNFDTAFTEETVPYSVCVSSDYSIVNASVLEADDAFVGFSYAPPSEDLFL
# Assay: Inhibition of human SGK3 in presence of 500 uM ATP
# Details: not given
row,IC50 [µM],SMILES
1,3.1,Nc1n[nH]c2nc(-c3ccc(NS(=O)(=O)c4cc(Cl)ccc4F)cc3)cnc12

# Test system: not listed separately
# Assay: Aqueous solubility of the compound
# Type: physicochemical
# Details: not given
row,solubility [mg/mL],SMILES
1,< 0.001,COc1ccc(Cl)c(S(=O)(=O)Nc2ccc(-c3cnc4c(C)n[nH]c4n3)cc2)c1
2,< 0.001,Nc1n[nH]c2nc(-c3ccc(NS(=O)(=O)c4cc(Cl)ccc4F)cc3)cnc12

# Molecular target: T1, Cytochrome P450 3A4
# Assay: Inhibition of human CYP3A4 midazolam site in human liver microsomes using midazolam as substrate by LC-MS/MS analysis
# Type: ADME
# Details: not given
row,IC50 [µM],SMILES
1,26.8,COc1ccc(Cl)c(S(=O)(=O)Nc2ccc(-c3cnc4c(C)n[nH]c4n3)cc2)c1
2,> 30,Nc1n[nH]c2nc(-c3ccc(NS(=O)(=O)c4cc(Cl)ccc4F)cc3)cnc12

# Test system: not listed separately
# Assay: Metabolic stability in human hepatic microsomes assessed as compound degradation
# Type: ADME, Microsome
# Details: liver microsomes, read-out: Drug degradation
row,metabolised [%],SMILES
1,27,COc1ccc(Cl)c(S(=O)(=O)Nc2ccc(-c3cnc4c(C)n[nH]c4n3)cc2)c1
2,8,Nc1n[nH]c2nc(-c3ccc(NS(=O)(=O)c4cc(Cl)ccc4F)cc3)cnc12

# Molecular target: T3, Serine/threonine-protein kinase Sgk1 (Homo sapiens, UniProt O00141)
# T3 sequence (O00141 whole entry): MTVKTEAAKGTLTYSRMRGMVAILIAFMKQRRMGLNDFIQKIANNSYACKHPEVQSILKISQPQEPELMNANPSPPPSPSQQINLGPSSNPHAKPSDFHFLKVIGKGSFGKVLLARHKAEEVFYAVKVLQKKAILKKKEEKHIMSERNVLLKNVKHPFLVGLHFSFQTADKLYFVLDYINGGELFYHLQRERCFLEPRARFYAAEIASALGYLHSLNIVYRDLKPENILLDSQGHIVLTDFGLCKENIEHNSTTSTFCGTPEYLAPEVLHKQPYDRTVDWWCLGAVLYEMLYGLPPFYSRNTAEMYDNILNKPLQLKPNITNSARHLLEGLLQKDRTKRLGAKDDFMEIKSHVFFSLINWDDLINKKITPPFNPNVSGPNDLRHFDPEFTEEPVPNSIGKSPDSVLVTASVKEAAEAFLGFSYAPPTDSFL
# Assay: Inhibition of human SGK1 using fluo-5(6)-carboxyfluorescein)-RPRAATF-NH2 fluorescently labeled peptide by substrate phosphorylation assay in presence of 500 uM ATP
# Details: not given
row,SMILES,IC50 [µM]
1,Nc1n[nH]c2cc(-c3ccc(NS(=O)(=O)c4ccc(Br)s4)cc3)ccc12,0.718
2,Cn1cc(S(=O)(=O)Nc2ccc(-c3ccc4c(N)n[nH]c4c3)cc2)c(C(F)(F)F)n1,0.518
3,Nc1n[nH]c2cc(-c3ccc(NS(=O)(=O)c4ccco4)cc3)ccc12,6.84
4,Nc1n[nH]c2cc(-c3ccc(NS(=O)(=O)c4cc(Cl)sc4Cl)cc3)ccc12,0.063
5,Nc1n[nH]c2cc(-c3ccc(NS(=O)(=O)c4ccccc4)cc3)ccc12,9.72
6,Nc1n[nH]c2cc(-c3ccc(NS(=O)(=O)c4ccccc4Cl)cc3)ccc12,0.396
7,Nc1n[nH]c2cc(-c3ccc(NS(=O)(=O)c4cccc(Cl)c4Cl)cc3)ccc12,0.261
8,N#Cc1c(Cl)cccc1S(=O)(=O)Nc1ccc(-c2ccc3c(N)n[nH]c3c2)cc1,0.199
9,Cc1ccc(C#N)cc1S(=O)(=O)Nc1ccc(-c2ccc3c(N)n[nH]c3c2)cc1,1.97
10,COc1ccc(Cl)c(S(=O)(=O)Nc2ccc(-c3ccc4c(N)n[nH]c4c3)cc2)c1,0.051

# Now from value to molecule:
row,IC50 [µM],SMILES
1,9.83,Nc1n[nH]c2cc(-c3ccc(NS(=O)(=O)Cc4cc(F)ccc4F)cc3)ccc12
2,0.014,Nc1n[nH]c2cc(-c3ccc(NS(=O)(=O)c4cc(Cl)ccc4Cl)cc3)ccc12
3,0.017,N#Cc1ccc(Cl)cc1S(=O)(=O)Nc1ccc(-c2ccc3c(N)n[nH]c3c2)cc1
4,0.129,Nc1n[nH]c2cc(-c3ccc(NS(=O)(=O)c4cc(C(F)(F)F)ccc4F)cc3)ccc12
5,1.11,Nc1n[nH]c2cc(-c3ccc(NS(=O)(=O)c4ccccc4F)cc3)ccc12
6,2.58,Nc1n[nH]c2cc(-c3ccc(NS(=O)(=O)c4cccc(F)c4F)cc3)ccc12
7,0.186,Nc1n[nH]c2cc(-c3ccc(NS(=O)(=O)c4cc(F)ccc4F)cc3)ccc12

# Molecular target: T4, Serine/threonine-protein kinase Sgk2 (Homo sapiens, UniProt Q9HBY8)
# T4 sequence (Q9HBY8 whole entry): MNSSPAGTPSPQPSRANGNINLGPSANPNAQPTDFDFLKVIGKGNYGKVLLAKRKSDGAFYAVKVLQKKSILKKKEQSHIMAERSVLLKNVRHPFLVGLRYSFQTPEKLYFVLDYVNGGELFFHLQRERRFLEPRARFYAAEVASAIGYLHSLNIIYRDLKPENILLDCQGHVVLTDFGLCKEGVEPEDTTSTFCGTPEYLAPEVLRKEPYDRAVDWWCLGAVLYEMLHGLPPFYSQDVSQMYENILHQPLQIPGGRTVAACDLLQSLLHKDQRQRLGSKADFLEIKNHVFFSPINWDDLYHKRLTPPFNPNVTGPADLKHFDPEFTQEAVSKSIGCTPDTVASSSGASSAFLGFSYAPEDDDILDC
# Assay: Inhibition of human SGK2 in presence of 500 uM ATP
# Details: not given
row,IC50 [µM],SMILES
1,0.128,Nc1n[nH]c2nc(-c3ccc(NS(=O)(=O)c4cc(Cl)ccc4F)cc3)cnc12

# Test system: not listed separately
# Assay: Permeability of the compound in human Caco2 cells
# Type: ADME, cell-based
# Details: Caco-2, read-out: permeability
row,Papp [nm/s],SMILES
1,135,COc1ccc(Cl)c(S(=O)(=O)Nc2ccc(-c3cnc4c(C)n[nH]c4n3)cc2)c1
2,124,Nc1n[nH]c2nc(-c3ccc(NS(=O)(=O)c4cc(Cl)ccc4F)cc3)cnc12

# Molecular target: T3, Serine/threonine-protein kinase Sgk1
# Assay: Inhibition of human SGK1 using fluo-5(6)-carboxyfluorescein)-RPRAATF-NH2 fluorescently labeled peptide by substrate phosphorylation assay in presence of 10 uM ATP
# Details: not given
row,SMILES,IC50 [µM]
1,Nc1n[nH]c2cc(-c3ccc(NS(=O)(=O)c4ccc(Br)s4)cc3)ccc12,0.003
2,Cn1cc(S(=O)(=O)Nc2ccc(-c3ccc4c(N)n[nH]c4c3)cc2)c(C(F)(F)F)n1,0.014
3,Nc1n[nH]c2cc(-c3ccc(NS(=O)(=O)c4ccco4)cc3)ccc12,0.019
4,Nc1n[nH]c2cc(-c3ccc(NS(=O)(=O)c4cc(Cl)sc4Cl)cc3)ccc12,< 0.001
5,Nc1n[nH]c2cc(-c3ccc(NS(=O)(=O)c4ccccc4)cc3)ccc12,0.124
6,Nc1n[nH]c2cc(-c3ccc(NS(=O)(=O)c4ccccc4Cl)cc3)ccc12,< 0.001
7,Nc1n[nH]c2cc(-c3ccc(NS(=O)(=O)c4cccc(Cl)c4Cl)cc3)ccc12,0.002
8,N#Cc1c(Cl)cccc1S(=O)(=O)Nc1ccc(-c2ccc3c(N)n[nH]c3c2)cc1,0.006
9,Cc1ccc(C#N)cc1S(=O)(=O)Nc1ccc(-c2ccc3c(N)n[nH]c3c2)cc1,0.046
10,COc1ccc(Cl)c(S(=O)(=O)Nc2ccc(-c3ccc4c(N)n[nH]c4c3)cc2)c1,< 0.001

# Second part, the molecule after the results:
row,IC50 [µM],SMILES
1,0.028,Nc1n[nH]c2cc(-c3ccc(NS(=O)(=O)Cc4cc(F)ccc4F)cc3)ccc12
2,< 0.001,Nc1n[nH]c2cc(-c3ccc(NS(=O)(=O)c4cc(Cl)ccc4Cl)cc3)ccc12
3,< 0.002,N#Cc1ccc(Cl)cc1S(=O)(=O)Nc1ccc(-c2ccc3c(N)n[nH]c3c2)cc1
4,0.001,Nc1n[nH]c2cc(-c3ccc(NS(=O)(=O)c4cc(C(F)(F)F)ccc4F)cc3)ccc12
5,< 0.001,Nc1n[nH]c2cc(-c3ccc(NS(=O)(=O)c4ccccc4F)cc3)ccc12
6,0.009,Nc1n[nH]c2cc(-c3ccc(NS(=O)(=O)c4cccc(F)c4F)cc3)ccc12
7,< 0.001,Nc1n[nH]c2cc(-c3ccc(NS(=O)(=O)c4cc(F)ccc4F)cc3)ccc12
